{"source": "patent US20240124872A1", "about": "“IDENTIFICATION OF GENOMIC TARGETS” (University of Leeds, priority 2021, published 2024)", "key": {"[1]": {"test_system": "HeLa cells stably expressing CaMPARI-H396K", "assay": "AITC responsiveness via Fura-2 calcium imaging", "type": "cell-based", "conditions": "unmodified HeLa cells stably expressing CaMPARI-H396K (HeLa-C); FIG. 4", "experimental": "FIG. 4 provides validation of TAGS (AITC-screen for TRPA1). a) a Piggy-Bac library was generated in Hela-C cells, stimulated with 100 uM AITC and co-incident photo-conversion light, and sorted via FACS based on CaMPARI red/green signal. b) Positive clones were collected as single cells, expanded into clonal populations, and testing for AITC responsiveness via Fura-2 calcium imaging. Percent responding cells are shown for each population. c-d) Example Fura-2 imaging traces. c) phenotypic negativity of HeLa-C cells. d) Example traces from population #22 in b. e) Genotyping of 100% responders. […] Blue arrows highlight transcription start site (TSS) of TRPA1. Red arrows highlight the true common insertion site (CIS) upstream of the TSS, found in every clone genotyped.\nA test sample from each positive clonal line was loaded with the fluorescent calcium indicator Fura-2AM for 30 minutes in regular media supplemented with 1 ul/ml PluronicF127, washed with Ringer solution, and tested for positivity for the phenotype in question using conventional fluorescent microscopy (see FIG. 4a-d). A further test sample from confirmed positive clonal lines was transfected (as described above) with the pCAG-Cre vector (Addgene) to induce transient Cre recombinase expression. Phenotypic positivity was then re-tested as above, and populations in which the phenotype […] are discarded. […]"}, "TRPA1 knockout mice": {"test_system": "TRPA1 knockout mice", "conditions": "cited from earlier work"}}, "data": [{"compound": "C=CCN=C=S", "note": "[AITC]", "values": [{"measurement": "AITC responses (calcium signalling)", "setting": "[1]", "result": "phenotypically negative"}, {"measurement": "sensitivity to AITC", "setting": "TRPA1 knockout mice", "result": "lose all sensitivity"}]}]}
